Data from patent US9440982B2 (Eolas Therapeutics, Inc., priority 2012, dated 2016).

Biological target: T1, OX1 (Homo sapiens, UniProt O43613)
T1 construct: expressed in transfected cells; host or cells: CHO (CHO-OX1, kept under selection antibiotic)
T1 sequence (O43613 1-425): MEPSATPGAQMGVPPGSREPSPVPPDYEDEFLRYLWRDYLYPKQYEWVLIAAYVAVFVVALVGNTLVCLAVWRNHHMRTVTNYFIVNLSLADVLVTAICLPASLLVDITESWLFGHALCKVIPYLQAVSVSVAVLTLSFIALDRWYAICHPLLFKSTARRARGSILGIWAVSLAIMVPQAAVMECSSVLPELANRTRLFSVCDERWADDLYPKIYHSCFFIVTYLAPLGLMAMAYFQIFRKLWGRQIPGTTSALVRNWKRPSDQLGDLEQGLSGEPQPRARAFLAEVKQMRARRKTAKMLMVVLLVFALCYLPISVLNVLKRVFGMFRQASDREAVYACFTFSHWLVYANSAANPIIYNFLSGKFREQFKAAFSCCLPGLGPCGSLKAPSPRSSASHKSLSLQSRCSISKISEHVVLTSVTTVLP
Assay: Orexin receptor cell-based functional assay, [Ca2+]i by FLIPR, CHO-OX1 cells
Conditions: Table 2; CHO-OX1 cells, EC90 of OXA; read-out: IC50 Bioactivity OX1
Method: Measurement of [Ca^2+]i using a FLIPR: CHO—OX1 or CHO—OX2 cells are seeded into black-walled clear-base 384-well plates (Costar) at a density of 20,000 cells per well in F12-K medium supplemented with 10% FBS and selection antibiotic (500 ug/ml G418 or 15 ug/ml Blasticidin) and cultured overnight. The cells are incubated with equal volume of calcium4 loading buffer (Molecular Devices, Inc.) containing 2.5 mM probenecid at 37° C. for 30 min, followed by putative OX1 or OX2 receptor antagonists (dose-range 0.1 nM-10 μM) for another 30 min.
The cells are incubated with equal volume of calcium6 loading buffer (Molecular Devices, Inc.) containing 2.5 mM probenecid at 37° C. for 2 h, followed by test compounds (dose-range 0.1 nM-10 μM) for another 30 min.

Compound	IC50 [nM]
COc1c(F)cccc1C(=O)N1CCC[C@@H](C)[C@H]1CNC(=O)c1cccc2cccnc12 (racemic) [Example 10, rac-cis-N-((1-(3-Fluoro-2-methoxybenzoyl)-3-methylpiperidin-2-yl)methyl)quinoline-8-carboxamide]	< 3000
COc1ccnc(NC[C@@H]2[C@H](C)CCCN2C(=O)c2nc(C)sc2-c2ccc(F)cc2)n1 (racemic) [Example 17, rac-cis-(5-(4-Fluorophenyl)-2-methylthiazol-4-yl)(2-(((4-methoxypyrimidin-2-yl)amino)methyl)-3-methylpiperidin-1-yl)methanone]	52
Cc1nc(C(=O)N2CCC[C@@H](C)[C@H]2CNc2ccnc(Cl)n2)c(-c2ccc(F)cc2)s1 (racemic) [Example 19, rac-cis-(2-(((2-Chloropyrimidin-4-yl)amino)methyl)-3-methylpiperidin-1-yl)(5-(4-fluorophenyl)-2-methylthiazol-4-yl)methanone]	270
Cc1nc(C(=O)N2CCC[C@@H](C)[C@H]2CNc2ncccc2C(F)(F)F)c(-c2ccc(F)cc2)s1 (racemic) [Example 22, rac-cis-(5-(4-Fluorophenyl)-2-methylthiazol-4-yl)(3-methyl-2-(((3-(trifluoromethyl)pyridin-2-yl)amino)methyl)piperidin-1-yl)methanone]	82
Cc1nc(-c2ccccc2)c(C(=O)N2C(C)CCCC2CNC(=O)c2cccc3cccnc23)s1 (racemic) [Example 29, rac-N-((6-Methyl-1-(2-methyl-4-phenylthiazole-5-carbonyl)piperidin-2-yl)methyl)quinoline-8-carboxamide]	200
Cc1nc(-c2ccccc2)c(C(=O)N2C(C)CCCC2CCOc2ccccc2)s1 (racemic) [Example 30, rac-(2-Methyl-4-phenylthiazol-5-yl)(2-methyl-6-(2-phenoxyethyl)piperidin-1-yl)methanone]	220
CC1CCCC(CCOc2ccccc2)N1C(=O)c1ccccc1-c1ccccc1 (racemic) [Example 31, rac-Biphenyl-2-yl(2-methyl-6-(2-phenoxyethyl)piperidin-1-yl)methanone]	10
NC1CCC(CNC(=O)c2cccc3cccnc23)N(C(=O)c2ccccc2-c2ccccc2)C1 (racemic) [Example 39, N-((5-Amino-1-(biphenylcarbonyl)piperidin-2-yl)methyl)quinoline-8-carboxamide]	30
O=C(NCC1CCC(NCc2ccccc2)CN1C(=O)c1ccccc1-c1ccccc1)c1cccc2cccnc12 (racemic) [Example 40, N-((5-(Benzylamino)-1-(biphenylcarbonyl)piperidin-2-yl)methyl)quinoline-8-carboxamide]	600
CN(C)C1CCC(CNC(=O)c2cccc3cccnc23)N(C(=O)c2ccccc2-c2ccccc2)C1 (racemic) [Example 41, N-((1-(Biphenylcarbonyl)-5-(dimethylamino)piperidin-2-yl)methyl)quinoline-8-carboxamide]	1500
CNC1CCC(CNC(=O)c2cccc3cccnc23)N(C(=O)c2sc(C)nc2-c2ccccc2)C1 (racemic) [Example 45, N-((1-(2-Methyl-4-phenylthiazole-5-carbonyl)-5-(methylamino)piperidin-2-yl)methyl)quinoline-8-carboxamide]	< 10000
CCNC1CCC(CNC(=O)c2cccc3cccnc23)N(C(=O)c2sc(C)nc2-c2ccccc2)C1 (racemic) [Example 46, N-((5-(Ethylamino)-1-(2-methyl-4-phenylthiazole-5-carbonyl)piperidin-2-yl)methyl)quinoline-8-carboxamide]	< 10000
Cc1nc(-c2ccccc2)c(C(=O)N2CC(NCCO)CCC2CNC(=O)c2cccc3cccnc23)s1 (racemic) [Example 47, N-((5-(2-Hydroxyethylamino)-1-(2-methyl-4-phenylthiazole-5-carbonyl)piperidin-2-yl)methyl)quinoline-8-carboxamide]	< 10000
Cc1nc(-c2ccccc2)c(C(=O)N2CC(NC(C)C)CCC2CNC(=O)c2cccc3cccnc23)s1 (racemic) [Example 48, N-((5-(Isopropylamino)-1-(2-methyl-4-phenylthiazole-5-carbonyl)piperidin-2-yl)methyl)quinoline-8-carboxamide]	< 10000
CNC1CCC(CNC(=O)c2cccc3cccnc23)N(C(=O)c2ccccc2-c2ccccc2)C1 (racemic) [Example 49, N-((1-(Biphenylcarbonyl)-5-(methylamino)piperidin-2-yl)methyl)quinoline-8-carboxamide]	25

Second part, the molecule after the results:

IC50 [nM]	Compound
1	Cc1nc(C(=O)N2CC(F)CCC2CNC(=O)c2cccc3cccnc23)c(-c2ccccc2)s1 (racemic) [Example 1, N-((5-Fluoro-1-(2-methyl-5-phenylthiazole-4-carbonyl)piperidin-2-yl)methyl)quinoline-8-carboxamide]
9	Cc1nc(C(=O)N2CCC[C@@H](C(F)(F)F)[C@H]2CNc2ccc(C(F)(F)F)cn2)c(-c2ccccc2)s1 (racemic) [Example 14, rac-cis-(2-Methyl-5-phenylthiazol-4-yl)(3-(trifluoromethyl)-2-(((5-(trifluoromethyl)pyridin-2-yl)amino)methyl)piperidin-1-yl)methanone]
8	CCc1cnc(NC[C@@H]2[C@H](C)CCCN2C(=O)c2nc(C)sc2-c2ccc(F)cc2)nc1 (racemic) [Example 16, rac-cis-(2-(((5-Ethylpyrimidin-2-yl)amino)methyl)-3-methylpiperidin-1-yl)(5-(4-fluorophenyl)-2-methylthiazol-4-yl)methanone]
16	Cc1nc(C(=O)N2CCC[C@@H](C)[C@H]2CNc2ccc(Cl)cn2)c(-c2ccc(F)cc2)s1 (racemic) [Example 18, rac-cis-(2-(((5-Chloropyridin-2-yl)amino)methyl)-3-methylpiperidin-1-yl)(5-(4-fluorophenyl)-2-methylthiazol-4-yl)methanone]
24	Cc1nc(C(=O)N2CCC[C@@H](C)[C@H]2CNc2cc(C(F)(F)F)ccn2)c(-c2ccc(F)cc2)s1 (racemic) [Example 21, rac-cis-(5-(4-Fluorophenyl)-2-methylthiazol-4-yl)(3-methyl-2-(((4-(trifluoromethyl)pyridin-2-yl)amino)methyl)piperidin-1-yl)methanone]
20	Cc1nc(-c2ccccc2)c(C(=O)N2CC(O)CCC2CNC(=O)c2cccc3cccnc23)s1 (racemic) [Example 33, N-((5-Hydroxy-1-(2-methyl-4-phenylthiazole-5-carbonyl)piperidin-2-yl)methyl)quinoline-8-carboxamide]
2	Cc1nc(-c2ccccc2)c(C(=O)N2CC(F)CCC2CNC(=O)c2cccc3cccnc23)s1 (racemic) [Example 35, N-((5-Fluoro-1-(2-methyl-4-phenylthiazole-5-carbonyl)piperidin-2-yl)methyl)quinoline-8-carboxamide]
7	COC1CCC(CNC(=O)c2cccc3cccnc23)N(C(=O)c2nc(C)sc2-c2cccc(F)c2)C1 (racemic) [Example 50, N-((1-(5-(3-Fluorophenyl)-2-methylthiazole-4-carbonyl)-5-methoxypiperidin-2-yl)methyl)quinoline-8-carboxamide]
